Data as given in publication PMC5483439, “The Effect of Pungent and Tingling Compounds from Piper nigrum L. on Background K^+ Currents” (Frontiers in Pharmacology, 2017).

Tests used:
hKCNK18 = target: T1, hKCNK18 (Homo sapiens, UniProt Q7Z418); test: Two-electrode voltage clamp on Xenopus laevis oocytes expressing hKCNK18; assay type: cell-based; details: 1 mM
T1 construct: expressed in transfected cells; host or cells: Xenopus laevis oocytes injected with cRNA (plasmid pEXO, gift of Dr. P. Enyedi)
T1 sequence (Q7Z418 1-384): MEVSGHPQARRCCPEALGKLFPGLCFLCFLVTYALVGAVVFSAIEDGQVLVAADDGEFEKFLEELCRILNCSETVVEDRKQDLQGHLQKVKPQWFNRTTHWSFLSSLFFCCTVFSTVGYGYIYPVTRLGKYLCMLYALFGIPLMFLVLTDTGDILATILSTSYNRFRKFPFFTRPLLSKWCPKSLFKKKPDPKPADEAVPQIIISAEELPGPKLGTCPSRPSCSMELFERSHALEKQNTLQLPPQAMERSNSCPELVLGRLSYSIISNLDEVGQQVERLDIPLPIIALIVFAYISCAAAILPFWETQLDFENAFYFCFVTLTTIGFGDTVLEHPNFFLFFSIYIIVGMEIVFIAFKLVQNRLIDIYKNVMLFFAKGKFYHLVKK
Text: (§1) Human KCNK3 (TASK-1, K2P3.1) cloned into the expression vector pIRES-CD8 was a gift from Dr. Fabrice Duprat (Institut National de la Santé et de la Recherche Médicale, Antipolis, France). Human KCNK18 (hTRESK, K2P18.1), cloned into the plasmid pEXO, was a gift from Dr. P. Enyedi (Semmelweis University, Budapest, Hungary). These plasmids were linearized with the restriction enzymes BamHI and XbaI, respectively, and then used as templates for in vitro transcription. Human KCNK9 (hTASK-3, K2P9.1) cloned into the expression vector pCR4-TOPO, was purchased from Imagenes (Berlin, Germany). The plasmid was linearized with the restriction enzyme SspI, to generate a linear cDNA template for in vitro transcription. mKCNK3 was isolated from mouse heart by standard procedures and inserted into pSGEM. mKCNK9 and mKCNK18 were kindly provided by Dr. D. Bayliss (University of Virginia, Charlottesville, VA, United States) and Prof. Dr. P. Enyedi (Semmelweis University, Budapest, Hungary). Both channels were subcloned into pSGEM. The pSGEM plasmids were subsequently linearized with the restriction enzyme PacI. The capped RNAs were synthesized in the presence of the capping analog m7G(5′)ppp(5′)G using the AmpliCap-T7 Message Maker kit (Epicentre, Madison, WI, United States). The cRNA was dissolved in nuclease-free water to obtain a final concentration of 100 ng/μL.
(§2) The expression in Xenopus laevis oocytes was essentially performed as previously described ([Beltrán et al., 2013]). Briefly, mature female Xenopus laevis frogs were anesthetized with 0.15% MS-222, and surgery was performed according to standard methods, where the extracted ovarian lobes were placed into Ca^2+-free Barth solution containing collagenase type II (Worthington Biochemical Corporation, Lakewood, NJ, United States) and kept for 90 min on a shaker at 40 rpm (room temperature). Healthy stage V and VI oocytes were selected for injection with cRNA coding for the proteins of interest. Thirty nanoliters of cRNA (100 ng/μL) of each channel were injected using a Microinjector Micro 4 ^TM (World Precision Instruments). […]

tongue surface = test system: tongue surface; set-up: method as in Dawid et al., 2012; details: human, ref Dawid et al., 2012, cited from earlier work
hKCNK9 = target: T2, hKCNK9 (Homo sapiens, UniProt Q9NPC2); test: Two-electrode voltage clamp on Xenopus laevis oocytes expressing hKCNK9; assay type: cell-based; details: 1 mM
T2 construct: host or cells: Xenopus laevis oocytes injected with cRNA (plasmid pCR4-TOPO)
Text: as §1
as §2, with “Instruments). After injection, the oocytes were kept in ND96 (96 mM NaCl; 2 mM KCl; 1.8 mM CaCl2; 1 mM MgCl2; 2.5 mM Sodium pyruvate; 10 mM, HEPES [4-(2-hydroxyethyl)-1-piperazineethanesulfonic acid), pH 7.4]. The measurements were performed 24 to 72 h after injection. The oocytes were placed in a 100 μL chamber that was perfused with frog Ringer’s solution (115 mM NaCl; 2.5 mM KCl; 1.8 mM CaCl2, and 10 mM HEPES, pH 7.2). The substances were dissolved in this solution before being manually applied to the oocytes using an automatic pipette (Research pro, Eppendorf, Germany). The application time was usually three ramps (approximately 10 s).” for “Instruments).”

hKCNK3 = target: T3, hKCNK3 (Homo sapiens, UniProt O14649); test: Two-electrode voltage clamp on Xenopus laevis oocytes expressing hKCNK3; assay type: cell-based
T3 construct: expressed in transfected cells; host or cells: Xenopus laevis oocytes injected with cRNA (plasmid pIRES-CD8, gift of Dr. Fabrice Duprat)
Text: as §1
The expression in Xenopus laevis oocytes was essentially performed as previously described ([Beltrán et al., 2013]). Briefly, mature female Xenopus laevis frogs were anesthetized with 0.15% MS-222, and surgery was performed according to standard methods, where the extracted ovarian lobes were placed into Ca^2+-free Barth solution containing collagenase type II (Worthington Biochemical Corporation, Lakewood, NJ, United States) and kept for 90 min on a shaker at 40 rpm (room temperature). Healthy stage V and VI oocytes were selected for injection with cRNA coding for the proteins of interest. Thirty nanoliters of cRNA (100 ng/μL) of each channel were injected using a Microinjector Micro 4 ^TM (World Precision Instruments). After injection, the oocytes were kept in ND96 (96 mM NaCl; 2 mM KCl; 1.8 mM CaCl2; 1 mM MgCl2; 2.5 mM Sodium pyruvate; 10 mM, HEPES [4-(2-hydroxyethyl)-1-piperazineethanesulfonic acid), pH 7.4]. The measurements were performed 24 to 72 h after injection. The oocytes were placed in a 100 μL chamber that was perfused with frog Ringer’s solution (115 mM NaCl; 2.5 mM KCl; 1.8 mM CaCl2, and 10 mM HEPES, pH 7.2). The substances were dissolved in this solution before being manually applied to the oocytes using an automatic pipette (Research pro, Eppendorf, Germany). The application time was usually three ramps (approximately 10 s). For recording, a Turbo Tec-03x (npi electronic GmbH, Tamm, Germany) amplifier was used, with an acquisition rate of 1000 Hz and a low pass filter of 20 Hz. Borosilicate glass capillaries were pulled with a Kopf vertical pipette puller. The pulled glass capillaries were filled with 3 M KCl.
A ramp series protocol was used to evaluate the activity of KCNK channels as previously described ([Beltrán et al., 2013]). Briefly, voltage ramps from –100 mV to + 50 mV ([…]) followed by a constant of +50 mV (150 ms) were applied at a time interval of 2 s. […] This value was then normalized to the average obtained from three ramps prior to the application. In most cases, the currents elicited by this voltage-clamp ramp series protocol were more than ten times larger than the background currents observed in uninjected oocytes, while also presenting the described outward rectification under physiological concentrations of intracellular and extracellular K^+ ([Goldstein et al., 2001]; [Enyedi and Czirják, 2010]). Due to these characteristics, no leakage subtraction was considered necessary. Oocytes not fulfilling these characteristics were not considered for data analysis. […]

T3 sequence (O14649 whole entry): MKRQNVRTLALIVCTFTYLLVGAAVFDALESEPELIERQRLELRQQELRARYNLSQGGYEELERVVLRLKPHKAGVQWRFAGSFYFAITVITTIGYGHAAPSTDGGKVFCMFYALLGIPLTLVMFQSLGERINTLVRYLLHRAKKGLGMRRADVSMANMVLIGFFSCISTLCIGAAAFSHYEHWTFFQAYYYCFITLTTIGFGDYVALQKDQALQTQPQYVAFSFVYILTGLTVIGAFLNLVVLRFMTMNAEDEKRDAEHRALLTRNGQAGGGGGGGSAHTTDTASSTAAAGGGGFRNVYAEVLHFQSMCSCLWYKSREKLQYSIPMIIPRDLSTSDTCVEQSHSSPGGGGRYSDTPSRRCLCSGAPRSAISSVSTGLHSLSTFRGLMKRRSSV
T2 sequence (Q9NPC2 whole entry): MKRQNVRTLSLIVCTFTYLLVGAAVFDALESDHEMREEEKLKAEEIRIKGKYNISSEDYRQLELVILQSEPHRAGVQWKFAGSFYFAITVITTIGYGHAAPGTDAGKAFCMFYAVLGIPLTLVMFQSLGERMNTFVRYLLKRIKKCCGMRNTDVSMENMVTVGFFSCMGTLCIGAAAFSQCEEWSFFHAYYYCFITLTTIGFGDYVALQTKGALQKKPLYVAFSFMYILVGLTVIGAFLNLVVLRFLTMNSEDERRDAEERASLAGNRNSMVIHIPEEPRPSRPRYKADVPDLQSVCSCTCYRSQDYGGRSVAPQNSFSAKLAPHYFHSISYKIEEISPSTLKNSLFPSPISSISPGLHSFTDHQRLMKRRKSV

**Q.** Which “effect on basal activity of hKCNK18” value (hKCNK18) does the source give for CC(C)CNC(=O)/C=C/C=C/c1ccc2c(c1)OCO2 [1c, piperlonguminine] here?
**A.** Its value is “decrease in their basal activity”.

**Q.** And the pungent threshold concentration (tongue surface; filter paper on tongue)?
**A.** The pungent threshold concentration was 10.4 nmol/cm^2.

**Q.** And the “threshold for oral pungency” value (tongue surface)?
**A.** The value was 0.01 μmol/cm^2.

**Q.** What about the “effect on basal activity of hKCNK9” value (hKCNK9) of the same compound?
**A.** The value was “decrease in their basal activity”.

**Q.** And the “effect on basal activity of hKCNK3” value (hKCNK3; 1 mM, Xenopus oocytes)?
**A.** Its value is “decrease in their basal activity”.

**Q.** What about the IC50 (hKCNK3; Xenopus oocytes, current at +50 mV normalized to pre-application, read-out: IC50 on hKCNK3) of the same compound?
**A.** The IC50 was 113 ± 79.5 µM.

**Q.** What about the “% of basal activity after saturating concentrations” value (hKCNK3; hKCNK3 in Xenopus oocytes) of the same compound?
**A.** The value was 50 ± 14%.
